Test results: patent US20230108906A1, “SUBSTITUTED BICYCLIC AND TRICYCLIC UREAS AND AMIDES, ANALOGUES THEREOF, AND METHODS USING SAME” (Arbutus Biopharma Corporation, priority 2019, published 2023)

System: HBV rcDNA in HepDE19 cells
Test: HepDE19 assay with bDNA quantitation of HBV rcDNA
Type: cell-based, hepatitis B virus (HBV)
Settings: Hepatitis B virus, HepDE19, 168 h, inhibition of rcDNA formation in HepDE19 cells (HepG2 derived), Tet-free medium, 7 day incubation, Quantigene 2.0 bDNA readout, top concentration 25 μM; read-out: DE-19bDNA EC50
Protocol: HepDE19 Assay with bDNA Quantitation of HBV rcDNA:
HepDE19 cell culture system is a HepG2 (human hepatocarcinoma) derived cell line that supports HBV DNA replication and cccDNA formation in a tetracycline (Tet)-regulated manner and produces HBV rcDNA and a detectable reporter molecule dependent on the production and maintenance of cccDNA (Guo, et al., 2007, J. Virol. 81:12472-12484).
HepDE19 (50,000 cells/well) were plated in 96-well collagen-coated tissue-culture treated microtiter plates in DMEM/F12 medium supplemented with 10% fetal bovine serum, 1% penicillin-streptomycin and 1 μg/mL tetracycline and incubated in a humidified incubator at 37° C. and 5% CO2 overnight. Next day, the cells were switched to fresh medium without tetracycline and incubated for 4 hours at 37° C. and 5% CO2. The cells were treated with fresh Tet-free medium with compounds at concentrations starting at 25 μM and a serial, […], 8-point, titration series in duplicate. The final DMSO concentration in the assay was 0.5%. The plates were incubated for 7 days in a humidified incubator at 37° C. and 5% CO2. Following a 7 day-incubation, the level of rcDNA present in the inhibitor-treated wells was measured using a Quantigene 2.0 bDNA assay kit (Affymetrix, Santa Clara, Calif.) with HBV specific custom probe set and manufacturers instructions. Concurrently, the effect of compounds on cell viability was assessed using replicate plates, plated at a density of 5,000 cells/well and incubated for 4 days, to determine the ATP content as a measure of cell viability using the cell-titer glo reagent (CTG; Promega Corporation, Madison, Wis.) as per manufacturer's instructions. The plates were read using a Victor luminescence plate reader (PerkinElmer Model 1420 Multilabel counter) and the relative luminescence units (RLU) data generated from each well was calculated as % inhibition of the untreated control wells and analyzed using XL-Fit module in Microsoft Excel to determine EC50 and EC90 (bDNA) and CC50 (CTG) values using a 4-parameter curve fitting algorithm.
Representative compounds of the disclosure were tested for their abilities to inhibit formation of relaxed circular DNA (rcDNA) in a HepDE19 assay, as described elsewhere herein.

Going from `CCN(C(=O)Nc1ccc(F)c(C#N)c1)C1COCc2[nH]c(=O)c3cc(Cl)ccc3c21` (stereo not drawn) [Compound 66, 1-(8-Chloro-6-oxo-1,4,5,6-tetrahydro-2H-pyrano[3,4-c]isoquinolin-1-yl)-3-(3-cyano-4-fluorophenyl)-1-ethylurea] to `CCN(C(=O)Nc1ccc(F)c(Cl)c1)C1COCc2[nH]c(=O)c3cc(F)ccc3c21` (stereo not drawn) [Compound 44, 3-(3-Chloro-4-fluorophenyl)-1-ethyl-1-(8-fluoro-6-oxo-1,4,5,6-tetrahydro-2H-pyrano[3,4-c]isoquinolin-1-yl)urea], the EC50 falls from 50 nM to 10 nM (5-fold). The second is the more potent here.

First: CN(C(=O)Nc1ccc(F)c(C(F)F)c1)[C@@H]1COCc2c1c1cc(F)c(F)cc1c(=O)n2CCO [Compound 251, (S)-1-(8,9-Difluoro-5-(2-hydroxyethyl)-6-oxo-1,4,5,6-tetrahydro-2H-pyrano[3,4-c]isoquinolin-1-yl)-3-(3-(difluoromethyl)-4-fluorophenyl)-1-methylurea]
Second: CN(C(=O)Nc1ccc(F)c(Cl)c1)C1COCc2[nH]c(=O)c3cscc3c21 (stereo not drawn) [Compound 105, 3-(3-Chloro-4-fluorophenyl)-1-methyl-1-(4-oxo-4,5,8,9-tetrahydro-6H-pyrano[3,4-b]thieno[3,4-d]pyridin-9-yl)urea]
The EC50 of the first is 1.5-fold higher: 30 nM for the first, 20 nM for the second. The second is the more potent here.

Compared with `CN(C(=O)NC1(C(F)(F)F)CC1)[C@@H]1COCc2[nH]c(=O)c3cc(F)c(F)cc3c21` [Compound 145, (S)-1-(8,9-Difluoro-6-oxo-1,4,5,6-tetrahydro-2H-pyrano[3,4-c]isoquinolin-1-yl)-1-methyl-3-(1-(trifluoromethyl)cyclopropyl)urea], `CC(C)CN(C(=O)Nc1ccc(F)c(Cl)c1)C1COCc2[nH]c(=O)c3cc(F)ccc3c21` (stereo not drawn) [Compound 43, 3-(3-Chloro-4-fluorophenyl)-1-(8-fluoro-6-oxo-1,4,5,6-tetrahydro-2H-pyrano[3,4-c]isoquinolin-1-yl)-1-isobutylurea] is 900-fold lower in EC50: 9000 nM for the first, 10 nM for the second.

Work on `CN(C(=O)Nc1ccc(F)c(Cl)c1)C1CCCc2[nH]c(=O)cc(C(F)(F)F)c21` (stereo not drawn) [Compound 2, 3-(3-Chloro-4-fluorophenyl)-1-methyl-1-(2-oxo-4-(trifluoromethyl)-1,2,5,6,7,8-hexahydroquinolin-5-yl)urea] yielded an EC50 of 1500 nM.

Same assay, conditions: inhibition of rcDNA formation in HepDE19 cells (HepG2 derived), Tet-free medium, 7 day incubation, Quantigene 2.0 bDNA readout, top concentration 25 μM; read-out: DE-19bDNA EC50

Going from `CN1Cc2[nH]c(=O)c3cc(F)ccc3c2C(N(C)C(=O)Nc2ccc(F)c(Cl)c2)C1` (single isomer, unassigned) [Compound 155, 3-(3-Chloro-4-fluorophenyl)-1-(8-fluoro-3-methyl-6-oxo-1,2,3,4,5,6-hexahydrobenzo[c][1,7]naphthyridin-1-yl)-1-methylurea] to `CN(C(=O)Nc1ccc(F)c(C#N)c1)C1C[S+]([O-])Cc2[nH]c(=O)c3cc(F)ccc3c21` (single isomer, unassigned) [Compound 200, 3-(3-Cyano-4-fluorophenyl)-1-(8-fluoro-3-oxido-6-oxo-1,4,5,6-tetrahydro-2H-thiopyrano[3,4-c]isoquinolin-1-yl)-1-methylurea], the EC50 rises from 9200 nM to at least 25000 nM. The first is the more potent here.

For `CN(C(=O)Nc1ccc(F)c(C#N)c1)C1C[S+]([O-])Cc2[nH]c(=O)c3cc(F)ccc3c21` (single isomer, unassigned) [Compound 202, 3-(3-Cyano-4-fluorophenyl)-1-(8-fluoro-3-oxido-6-oxo-1,4,5,6-tetrahydro-2H-thiopyrano[3,4-c]isoquinolin-1-yl)-1-methylurea], the EC50 was at least 25000 nM.

Same assay, conditions: read-out: DE-19bDNA EC50; inhibition of rcDNA formation in HepDE19 cells (HepG2 derived), Tet-free medium, 7 day incubation, Quantigene 2.0 bDNA readout, top concentration 25 μM

Compared with `CN(C(=O)Nc1ccccc1)C1COCc2[nH]c(=O)c3cc(F)c(F)cc3c21` (single isomer, unassigned) [Compound 101, 1-(8,9-Difluoro-6-oxo-1,4,5,6-tetrahydro-2H-pyrano[3,4-c]isoquinolin-1-yl)-1-methyl-3-phenylurea], `CN(C(=O)Nc1cccc(Cl)c1)C1COCc2[nH]c(=O)c3cc(F)c(F)cc3c21` (single isomer, unassigned) [Compound 119, 3-(3-Chlorophenyl)-1-(8,9-difluoro-6-oxo-1,4,5,6-tetrahydro-2H-pyrano[3,4-c]isoquinolin-1-yl)-1-methylurea] is 2.6-fold lower in EC50: 4700 nM for the first, 1800 nM for the second.
